Three compounds from paper PMC9763021, “Comprehensive Assessment of Biomolecular Interactions of Morpholine-Based Mixed Ligand Cu(II) and Zn(II) Complexes of 2,2′-Bipyridine as Potential Anticancer and SARS-CoV-2 Agents: A Synergistic Experimental and Structure-Based Virtual Screening” (Bioinorganic Chemistry and Applications, 2022) can be followed below.

Test [1] can be described thus: Superoxide scavenging assay. The settings on record: for % Inhibition superoxide: 590 nm. In kind it is biochemical. Here is the method:
All samples were evaluated for their scavenging ability with the help of UV-visible spectrophotometer at different concentrations of 40, 80, 120, 160, 200, and 240 μM [6, 28]. While performing the antioxidant properties for the DPPH, hydroxyl, superoxide, and nitric oxide radical scavenging, the absorbance at 517, 230, 590, and 546 nm, respectively, was closely observed. In addition, the observed IC50 values of all samples were compared with ascorbic acid.
A vital enzyme catalyst in the body's defence against free radicals, superoxide dismutase (SOD) quickly and efficiently reduces toxicity and cellular damage by exchanging superoxide with water (or) harmless molecules. The % of inhibition for all substances was analyzed at 590 nm. The outcomes were obtained in the subsequent order: (ascorbic acid) 84.85 > (1a) 67.17 > (2a) 58.18 > (HL) 50.42.

The subject of the next test is CT-DNA. The experiment in a line: DNA cleavage by gel electrophoresis in H2O2 environment. In kind it is biochemical, calf thymus. The settings on record: DNA + H2O2, Tris-HCl pH 7.4, agarose gel. Here is the method:
The characteristics were examined of all substances along with DNA containing H2O2 and Tris-HCl buffer solution (pH: 7.4). The tank solution's gel layer was lifted out after the experiment was finished and put in front of a UV transilluminator. Additionally, each band lane was scrutinized with control (DNA + H2O2).
Using the gel electrophoresis method, the DNA nuclease properties for all samples were assessed under the H2O2 environment. The examined DNA nuclease efficacy for all complexes (1a-2a) was contrasted with free ligand (HL) and CT-DNA alone. The raw data for electrophoretic gels and blots were also enclosed in the electronic supplementary file (Figure S15). In Figure 1, no substantial nuclease activity can be seen in the control (lane 1; DNA + H2O2) even after a lot of time has passed and the free ligand (HL) (lane: 2) was monitored as immobile in an H2O2 environment. […] Furthermore, ROS include O2^•−, H2O2, OH^•, ROOH, ROO^•, HOCl, and ^1O2 (singlet oxygen) and ozone (O3), which play essential roles in living systems. Consequently, it has commonly been acknowledged that ROS plays a dual physiological role in controlling a variety of illnesses as well as cellular homeostasis (self-regulating processes such as thermoregulation, blood glucose regulation, calcium/potassium homeostasis, and osmoregulation). […] Additionally, it is widely known that NADPH oxidase generates reactive oxygen species as a portion of its antibacterial effect on phagocytic cells. Nevertheless, these types of enzymes seem to be present in a variety of other cells as well and may have significant signalling pathway functions. When noncarcinogenic toxicity events occur, ROS has the ability to alter cell function as well as affect the genes of cancer at several levels. OH^• can attack DNA, proteins, and lipids due to its high reactivity among ROS. The hydroxyl radical is a key participant in free radical-mediated hazardous reactions because of its great reactivity. The free radicals are also essential for the redox regulation of many cellular signalling pathways and proper cellular functions. […]

The next test concerns Pseudomonas aeruginosa. The experiment in a line: Agar disc diffusion, strain D. In kind it is cell-based. Further details: (inhibition %): concentration or dose not given beside the values. The settings on record: for diameter of the clear zone inhibition: control = 6 mm. How it is done: In-vitro antimicrobial properties were evaluated for all samples by the agar disc diffusion method towards different fungal and bacterial strains. Additionally, the reported inhibition zone values were comparatively analyzed with the standard antifungal drugs ketoconazole and amphotericin B as well as the standard antibiotic medications streptomycin and amikacin.
The current research has a curious focus on the in vitro antimicrobial properties of biological systems because these studies are crucial for developing effective antibacterial and antifungal medications. […] It can also be spelled out based on the chelation theory proposed by Overtone and Tweedy. Chelation theory points out that the partial exchanging of the positive charge of the metal center with donor moieties, and overlap of the ligand orbitals will reduce the greater degree of the metal ion's polarity, which ultimately rises the delocalization of π and d electrons over the full chelated ring system. By raising the size of the metal ion due to the retarding of polarization, chelation may also enhance the complexes' lipophilic characteristics, which further stimulate the lipid membrane permeability and break down the bacteria' enzymes responsible for cell wall formation, therefore slowing down the regular cell processes. By preventing the production of cell walls/proteins/DNA, including by obstructing folate metabolism and the cytoplasmic membrane, antimicrobial drugs frequently either fully eliminate microbes or only prevent their cell growth. Additionally, the samples' mode of action may be employed in disrupting the cell's respiration process by forming an H-bond during the morpholine-fused iminic group coordinated with the active metal center of its components, inhibiting proliferation of the cell. […] The difference in the antimicrobial efficacy of some of the compounds towards various microorganisms influences on the impermeability of the cells of the germs or the diversity of ribosomes of the microbes. The % of the inhibition of all substances is estimated from (45) (Table 9).
(A, B, C, D, and E are represented as gram negative bacteria species Escherichia coli, Salmonella enteric serovar typhi, Salmonella enteric serovar typhi, Pseudomonas aeruginosa, and Shigella flexneri, respectively. F & G are denoted as gram positive bacteria species Staphylococcus aureus and Bacillus cereus. H, I, and J are represented as fungal strains Aspergillus niger, Candida albicans, and Mucor indicus. Standard drugs for bacterial strains: Amikacin & Streptomycin Standard drugs for fungal strains: Ketoconazole and Amphotericin B. [Control (DMSO) = 6 mm].(44) Inhibition %=T–C/T×100, where T and C are represented as the diameter of microbial growth of the sample plates and the control plate (6 mm), respectively. Error limits ±2.5–5.0% (P ≤ 0.05).
For orientation: A growth-free zone around the sample is the usual read-out of agar diffusion tests.

For orientation: IC50 means the concentration that inhibits the measured activity by half. `[Cu+2].[O-]c1ccccc1N=Cc1ccc(N2CCOCC2)cc1.[O-]c1ccccc1N=Cc1ccc(N2CCOCC2)cc1.c1ccc(-c2ccccn2)nc1` [(1a), [Cu(L)2(bpy)]]: in test [1], the IC50 worked out at 200 µM. Also, the “% Inhibition superoxide” value in test [1] (40 µM) is given as 08.32%; in test [1] (80 µM) it was 16.45%; in test [1] (120 µM), 31.86%; in test [1] (160 µM) it was 47.69%; in test [1] (200 µM) it was 60.03%; in test [1] (240 µM), 67.17%. The “DNA cleavage (nuclease activity)” value in the test on CT-DNA is on record as “complete DNA cleavage”. In addition, the “(inhibition %)” value in the test with Pseudomonas aeruginosa was found to be 33%. In addition, in the test with Pseudomonas aeruginosa, the “diameter of the clear zone inhibition” value turned out to be 09 mm.
`[O-]c1ccccc1N=Cc1ccc(N2CCOCC2)cc1.[O-]c1ccccc1N=Cc1ccc(N2CCOCC2)cc1.[Zn+2].c1ccc(-c2ccccn2)nc1` [(2a), [Zn(L)2(bpy)]]: the “% Inhibition superoxide” value in test [1] (40 µM) was found to be 06.32%; in test [1] (80 µM) it was 12.67%; in test [1] (120 µM) it was 24.14%; in test [1] (160 µM), 40.20%; in test [1] (200 µM), 51.92%; in test [1] (240 µM), 58.18%. The “DNA cleavage (nuclease activity)” value in the test with CT-DNA is “partially cleaves DNA”. In the test with Pseudomonas aeruginosa, the “(inhibition %)” value is reported as 33%. In the test with Pseudomonas aeruginosa, the “diameter of the clear zone inhibition” value was determined as 09 mm.
In the case of `Oc1ccccc1N=Cc1ccc(N2CCOCC2)cc1` [(HL), 2-(4-morpholinobenzylideneamino)phenol], the “% Inhibition superoxide” value in test [1] (40 µM) is 05.23%; in test [1] (80 µM), 10.74%; in test [1] (120 µM), 18.85%; in test [1] (160 µM), 33.55%; in test [1] (200 µM), 40.91%; in test [1] (240 µM), 50.42%. Also, the “DNA cleavage (nuclease activity)” value in the test with CT-DNA was “immobile”. For the same compound, the “(inhibition %)” value with Pseudomonas aeruginosa was 25%. Further, the “diameter of the clear zone inhibition” value with Pseudomonas aeruginosa stood at 08 mm.
